In US5707615A, “Method of treating HIV infections with anti-viral formulations” (Merrell Pharmaceuticals Inc., priority 1997, dated 1998):
Several values for one entry are separate records, joined by “and”; a condition that tells them apart may be missing. Equal entries are not always repeated.

Columns and labels:
[1] = system: HIV-I, GB8; test: Ability to prevent syncytia formation and expression of P24 viral core antigen using JM cells and GB8 virus strain (Example I); assay type: cell-based; conditions: for P24 % CONTROL: 4320 min; for SYNCYTIA: after 3 days
Experimental: The virus was first incubated with an oligomer for 15 minutes and then the cells were added. After 2 hours adsorption, the virus innoculum was removed and the cells were washed three times to remove traces of input virus. Antiviral activity was determined after 3 days incubation by plotting the mean number of syncytia found in quadruple cultures against log10 concentration of anionic polymer or of other test compounds. The potency of an oligomer was also measured by assaying viral core antigen (P24 test-Abbott) in the supernatant fluid. Heparin, dextran sulfate, rs CD4, ATZ and/or ddC data, when included in any of the following Tables, are provided as positive controls.

[2] = system: HIV strain RF; test: Ability to prevent virus-induced cell death using MT4 cells and strain RF (Example III); assay type: cell-based; conditions: MT4 cells, 7 days, MTT, 10080 min
Experimental: (§1) Various oligomers were dissolved in RPMI and were then assayed for anti-HIV activity by making doubling dilutions of the solutions across a 96 well microtitre plate. To each well were then added 5×10^4 cells and 100 TCID50 of virus and the plates incubated at 37° C. for 7 days. MTT was added to each well and the plates incubated for a further 2 hours. The blue formazan crystals were dissolved using acidic isopropanol, and the absorbance measured at 540 nm.

[3] = system: MT4 cells; test: Toxicity to MT4 cells (TD50, Table IV, MTT); assay type: cell-based; conditions: MT4 cells, 7 days, MTT
Experimental: as §1

[4] = system: HIV-I (GB8); test: Effect of treating HIV-I (GB8)-infected cells (JM) 24 hours post-infection (Example V, Table VI); assay type: cell-based; conditions: for P24 % CONTROL: 8640 min
[5] = system: HIV-I (GB8); test: Effect of treating HIV-I (GB8)-infected cells (JM) 48 hours post-infection (Example V, Table VIII); assay type: cell-based; conditions: for P24 / P24 % CONTROL: day 6 p.i.
[6] = system: HIV-I (GB8); test: Pretreatment of JM cells and block of HIV-I (GB8) infection (Example IV); conditions: pretreated overnight at 20 μg/mL
[7] = system: HIV-I (RF); test: Effect of treating HIV-I (RF)-infected cells (C8166) 24 hours post-infection (Example V, Table VII); conditions: for P24 % CONTROL: 8640 min
Experimental: Cells were infected with strain RF or GB8 for 24 hours at 37° C. at a multiplicity of infection of 0.001. Cells were washed three times to remove residual virus and then replated into fresh growth medium. Cells were then treated for 24 and 48 hours post-infection (p.i.) with the indicated concentrations of test compounds. Syncytia and P24 antigen levels were determined on the indicated days p.i. by methods described before.

[8] = system: GB8 virus in JM cells; test: Virus infection of JM cells with GB8 in the presence of test compounds: syncytia and P24 (Example II); conditions: Table II; for SYNCYTIA % / P24 %: % of control; for SYNCYTIA %: 2880 min; for P24 %: 5760 min
Experimental: Virus infection of JM cells was carried out in the presence of different concentrations of test compounds. JM cells (1×10^5) and 50-100 syncytial forming units of virus (GB8) were added to duplicate wells of a tissue culture plate containing 1 mL volumes of growth medium with or without drug. The plate was incubated for 2 days at 37° C. and then scored for the presence of syncytia. At the same time the cells were washed and the growth medium replaced. After a further two days incubation, the cell free supernatant fluids were harvested and assayed for levels of P24 viral core antigen using the Coulter™ HIV Antigen assay.

[9] = 0.31 μM, addition 24 hours p.i.
[10] = 0.62 μM, addition 24 hours p.i.
[11] = 1.2 μM, addition 0 hours p.i., single wells
[12] = 1.25 μM, addition 24 hours p.i.

poly{imino[2,2'-disulfo(1,1'-biphenyl)-4,4'-diyl]iminocarbonyl}, alpha-{[(4-methylphenyl)amino]carbonyl}-omega[(4-methylphenyl)amino]- [Example 1A]
P24 ([1]; 0.6 μg/mL): 37355 pg/mL
P24 % CONTROL ([1]; 0.6 μg/mL): 0.13%
P24 ([1]; 1.25 μg/mL): 541 pg/mL
P24 % CONTROL ([1]; 1.25 μg/mL): < 0.1%
SYNCYTIA ([1]; 1.25 μg/mL): 0
P24 ([1]; 2.5 μg/mL): 96 pg/mL
P24 % CONTROL ([1]; 2.5 μg/mL): < 0.1%
SYNCYTIA ([1]; 2.5 μg/mL): 0
SYNCYTIA ([1]; 5.0 μg/mL): 0
ED50 [2]: 1.6 µg/mL
TD50 [3]: > 100 µg/mL
P24 DAY 6 p.i. [4, 9]: 165000 pg/mL
SYNCYTIA/WELL DAY 3 p.i. [4, 9]: > 50 SYNCYTIA/WELL
P24 % CONTROL [4, 9]: 16.0%
P24 DAY 6 p.i. [4, 10]: 56000 pg/mL
SYNCYTIA/WELL DAY 3 p.i. [4, 10]: < 20 SYNCYTIA/WELL
P24 % CONTROL [4, 10]: 5.4%
P24 DAY 6 p.i. ([4]; 1.2 μM, addition 24 hours p.i.): 15000 pg/mL
SYNCYTIA/WELL DAY 3 p.i. ([4]; 1.2 μM, addition 24 hours p.i.): < 10 SYNCYTIA/WELL
P24 % CONTROL ([4]; 1.2 μM, addition 24 hours p.i.): 1.5%
P24 DAY 6 p.i. ([4]; 2.5 μM, addition 0 hours p.i.): 420 pg/mL
SYNCYTIA/WELL DAY 3 p.i. ([4]; 2.5 μM, addition 0 hours p.i.): 0 SYNCYTIA/WELL
P24 % CONTROL ([4]; 2.5 μM, addition 0 hours p.i.): 0.04%
P24 DAY 6 p.i. ([4]; 2.5 μM, addition 24 hours p.i.): 12100 pg/mL
SYNCYTIA/WELL DAY 3 p.i. ([4]; 2.5 μM, addition 24 hours p.i.): 0 SYNCYTIA/WELL
P24 % CONTROL ([4]; 2.5 μM, addition 24 hours p.i.): 1.2%
P24 ([5]; 1.2 μM, addition 0 hours p.i.): 450 pg/mL
P24 % CONTROL ([5]; 1.2 μM, addition 0 hours p.i.): 0.41%
SYNCYTIA/WELL DAY 3 p.i. [5, 11]: 0 SYNCYTIA/WELL
SYNCYTIA/WELL DAY 6 p.i. [5, 11]: 0 SYNCYTIA/WELL
P24 ([5]; 1.2 μM, addition 48 hours p.i.): 21000 pg/mL
P24 % CONTROL ([5]; 1.2 μM, addition 48 hours p.i.): 19.0%
SYNCYTIA/WELL DAY 3 p.i. ([5]; 1.2 μM, addition 48 hours p.i., single wells): 19 SYNCYTIA/WELL and 10 SYNCYTIA/WELL and 12 SYNCYTIA/WELL
effect on cells having preestablished infections ([5]; summary of studies): cleared cultures of syncytia, stabilized the infection and reduced virus antigen levels
P24 [6]: 2623 pg/mL
MEAN SYNCYTIA ([6]; 2 days): 14
P24 % ([6]; % of control, 2880 min): 9%
SYNCYTIA % ([6]; % of control, 2880 min): 12%
P24 DAY 6 p.i. [7, 10]: 700000 pg/mL
P24 % CONTROL [7, 10]: 74%
P24 DAY 6 p.i. [7, 12]: 1.5e+06 pg/mL
SYNCYTIA/WELL DAY 2 [7, 12]: 0
P24 % CONTROL [7, 12]: 100%
SYNCYTIA/WELL DAY 2 ([7]; 2.5 μM, addition 24 hours p.i.): 0
SYNCYTIA/WELL DAY 3 ([7]; 2.5 μM, addition 24 hours p.i.): 0
P24 % CONTROL ([7]; 2.5 μM, addition 24 hours p.i.): 10.2%
P24 DAY 6 p.i. ([7]; 5 μM, addition 24 hours p.i.): 9300 pg/mL
SYNCYTIA/WELL DAY 2 ([7]; 5 μM, addition 24 hours p.i.): 0
SYNCYTIA/WELL DAY 3 ([7]; 5 μM, addition 24 hours p.i.): 0
P24 % CONTROL ([7]; 5 μM, addition 24 hours p.i.): 1.0%
P24 DAY 6 p.i. ([7]; 10 μM, addition 0 hours p.i.): 16000 pg/mL
SYNCYTIA/WELL DAY 2 ([7]; 10 μM, addition 0 hours p.i.): 0
SYNCYTIA/WELL DAY 3 ([7]; 10 μM, addition 0 hours p.i.): 0
P24 % CONTROL ([7]; 10 μM, addition 0 hours p.i.): 1.7%
P24 DAY 6 p.i. ([7]; 10 μM, addition 24 hours p.i.): 9200 pg/mL
SYNCYTIA/WELL DAY 2 ([7]; 10 μM, addition 24 hours p.i.): 0
SYNCYTIA/WELL DAY 3 ([7]; 10 μM, addition 24 hours p.i.): 0
P24 % CONTROL ([7]; 10 μM, addition 24 hours p.i.): 1.0%
SYNCYTIA (2 DAYS) MEAN ([8]; 0.01 μg/mL): 60
SYNCYTIA % ([8]; 0.01 μg/mL): 143%
P24 ([8]; 0.03 μg/mL): 4.3 × 10^5 units/mL
SYNCYTIA (2 DAYS) MEAN ([8]; 0.03 μg/mL): 52
SYNCYTIA % ([8]; 0.03 μg/mL): 123%
P24 % ([8]; 0.03 μg/mL): 100%
P24 ([8]; 0.1 μg/mL): 4.0 × 10^5 units/mL
SYNCYTIA (2 DAYS) MEAN ([8]; 0.1 μg/mL): 25
SYNCYTIA % ([8]; 0.1 μg/mL): 58%
P24 % ([8]; 0.1 μg/mL): 100%
P24 ([8]; 0.3 μg/mL): 4.0 × 10^4 units/mL
SYNCYTIA (2 DAYS) MEAN ([8]; 0.3 μg/mL): 14
SYNCYTIA % ([8]; 0.3 μg/mL): 33%
P24 % ([8]; 0.3 μg/mL): 11%
P24 ([8]; 1 μg/mL): 9.1 × 10^3 units/mL
SYNCYTIA (2 DAYS) MEAN ([8]; 1 μg/mL): 0
SYNCYTIA % ([8]; 1 μg/mL): 0%
P24 % ([8]; 1 μg/mL): 3%
SYNCYTIA (2 DAYS) MEAN ([8]; 3 μg/mL): 0
SYNCYTIA % ([8]; 3 μg/mL): 0%
SYNCYTIA (2 DAYS) MEAN ([8]; 10 μg/mL): 0
SYNCYTIA % ([8]; 10 μg/mL): 0%
